The source of these data is US5912331A, “Process for the preparation of 9-deoxo-9(Z)-hydroxyiminoerythromycin A” (Merck & Co., Inc., priority 1991, dated 1999).

≈ marks a conversion by molar mass, not a printed value. Where two headings read alike, the source gives them in different places. Where only a bound is given, the exact number is not on record here.

Data set [1] relates to Streptococcus viridans CL 2943. Put plainly: MIC, liquid turbidimetric microtiter method in brain heart infusion broth. As to conditions: CL2943. It is filed as cell-based. The text has this:
(§1) The antibacterial activity of 9-deoxo-9(Z)-hydroxyiminoerythromycin A (II) against a panel of aerobic Gram positive and negative bacteria is shown in the following Table. The assay employs a liquid turbidimetric microtiter method for determination of the minimum inhibitory concentration (MIC) in brain heart infusion broth. […] The MIC is generally not an absolute value but rather a concentration range that falls within a two-fold dilution limit. Generally twelve two-fold dilutions of the test compound are employed with the initial concentration set at 128 mcg/ml.

Data set [2] deals with Klebsiella pneumoniae MB4005. Described as above. Type of data set: cell-based.
Source text: as §1

Data set [3] deals with Steptococcus pneumoniae CL 2883. The description is as above. Type of data set: cell-based.
Source text: as §1

The subject of data set [4] is Streptococcus agalactiae CL 1343. Described as above. As to conditions: CL1343. Type of data set: cell-based.
Source text: as §1

In data set [5] the test system is Streptococcus pyogenes MB 5406. The description is as above. Type of data set: cell-based. Particulars: MB5406.
Source text: as §1

The test system of data set [6] is Staphylococcus haemolyticus MB 5412. The description is as above. Type of data set: cell-based. Particulars: MB5412.
Source text: as §1

The test system of data set [7] is Streptococcus pyogenes MB 2874. The description is as above. It is filed as cell-based. As to conditions: MB2874.
Source text: as §1

Data set [8] concerns Staphylococcus aureus MB 2865. Described as above. Particulars: MB2865. Type of data set: cell-based.
Source text: as §1

Data set [9] deals with Enterococcus faecalis MB 5407. Described as above. It is filed as cell-based. As to conditions: MB5407.
Source text: as §1

In data set [10] the test system is Enterococcus faecium MB 5416. Described as above. Particulars: MB5416. Type of data set: cell-based.
Source text: as §1

Data set [11] deals with Yersinia enterocoltica CL 1598. The description is as above. Type of data set: cell-based. As to conditions: CL1598.
Source text: as §1

For data set [12], the system named is Staphylococcus epidermidis MB 5414. The description is as above. It is filed as cell-based. Particulars: MB5414.
Source text: as §1

The test system of data set [13] is Escherichia coli MB 4926. The description is as above. It is filed as cell-based. As to conditions: MB4926. The text has this:
(§2) The assay employs a liquid turbidimetric microtiter method for determination of the minimum inhibitory concentration (MIC) in brain heart infusion broth. […] The MIC is generally not an absolute value but rather a concentration range that falls within a two-fold dilution limit.

The test system of data set [14] is Pseudomonas stutzeri MB 1231. The data set is described as above. As to conditions: Stutzerimonas stutzeri, MB1231. It is filed as cell-based.
Source text: as §2

The subject of data set [15] is Escherichia coli MB 2884. The description is as above. Type of data set: cell-based. Particulars: MB2884.
Source text: as §2

Data set [16] can be described thus: isomer conversion under the MIC assay conditions. Type of data set: physicochemical.
Source text: as §1

Data set [17] deals with Gram-positive microorganisms, e.g. Staphylococcus aureaus and Streptococcus pyogenes, and certain Gram-negative microorganisms. Nature of the data set: in vivo antibacterial activity, infected mice treated orally or subcutaneously. The text has this: Extrapolation of such in vivo tests to support for human utility for macrolide compounds is likewise taught in U.S. Pat. No. 4,518,590, cited above.

Data set [18] concerns panel of aerobic Gram positive and negative bacteria. Nature of the data set: antibacterial activity in vitro against a panel of bacteria. Type of data set: cell-based.
Source text: as §1

Where [19] appears, read: Streptococcus viridans CL 2943, brain heart infusion broth, read-out: MIC.
Setting [20] is: Klebsiella pneumoniae MB4005, brain heart infusion broth, read-out: MIC.
The mark [21] stands for this setting: Steptococcus pneumoniae CL 2883, brain heart infusion broth, read-out: MIC.
Setting [22] is: Streptococcus agalactiae CL 1343, brain heart infusion broth, read-out: MIC.
The mark [23] stands for this setting: Streptococcus pyogenes MB 5406, brain heart infusion broth, read-out: MIC.
Setting [24] is: Staphylococcus haemolyticus MB 5412, brain heart infusion broth, read-out: MIC.
Where [25] appears, read: Streptococcus pyogenes MB 2874, brain heart infusion broth, read-out: MIC.
The mark [26] stands for this setting: Staphylococcus aureus MB 2865, brain heart infusion broth, read-out: MIC.
Where [27] appears, read: Enterococcus faecalis MB 5407, brain heart infusion broth, read-out: MIC.
[28] abbreviates: Enterococcus faecium MB 5416, brain heart infusion broth, read-out: MIC.
Setting [29] is: Yersinia enterocoltica CL 1598, brain heart infusion broth, read-out: MIC.
Where [30] appears, read: Staphylococcus epidermidis MB 5414, brain heart infusion broth, read-out: MIC.

`CC[C@H]1OC(=O)[C@H](C)[C@@H](O[C@H]2C[C@@](C)(OC)[C@@H](O)[C@H](C)O2)[C@H](C)[C@@H](O[C@@H]2O[C@H](C)C[C@H](N(C)C)[C@H]2O)[C@](C)(O)C[C@@H](C)C(=O)[C@H](C)[C@@H](O)[C@]1(C)O` [(I), Erythromycin A]: the MIC (commonly the lowest concentration found to suppress growth) is at most 0.06 mg/L in data set [1] (Streptococcus viridans); 32 mg/L (≈ 43.6 µM) in data set [2] (Klebsiella pneumoniae, MB4005); at most 0.06 mg/L in data set [3]; at most 0.06 mg/L in [4] (Streptococcus agalactiae); 16 mg/L (≈ 21.8 µM) in data set [5] (Streptococcus pyogenes); 0.12 mg/L (≈ 0.164 µM) in [6] (Staphylococcus haemolyticus). Moreover, the minimum inhibitory concentration (MIC) is at most 0.06 mg/L in data set [7] (Streptococcus pyogenes); 0.25 mg/L (≈ 0.341 µM) in data set [8] (Staphylococcus aureus); 1 mg/L (≈ 1.36 µM) in data set [9] (Enterococcus faecalis); 0.12 mg/L (≈ 0.164 µM) in data set [10] (Enterococcus faecium); 32 mg/L (≈ 43.6 µM) in [11] (Yersinia); 0.12 mg/L (≈ 0.164 µM) in data set [12] (Staphylococcus epidermidis). The values for the MIC in data set [13], in [14] and in data set [15] were 0.25 mg/L (≈ 0.341 µM), at most 0.06 mg/L and 16 mg/L (≈ 21.8 µM), respectively.
On to `CC[C@H]1OC(=O)[C@H](C)[C@@H](O[C@H]2C[C@@](C)(OC)[C@@H](O)[C@H](C)O2)[C@H](C)[C@@H](O[C@@H]2O[C@H](C)C[C@H](N(C)C)[C@H]2O)[C@](C)(O)C[C@@H](C)/C(=N/O)[C@H](C)[C@@H](O)[C@]1(C)O` [(II), 9-Deoxo-9(Z)-hydroxyiminoerythromycin A], for which the MIC in [1] (setting [19]) is at most 0.06 mg/L; in [2] (setting [20]), 32 mg/L (≈ 42.7 µM); in [3] (setting [21]) it was at most 0.06 mg/L; in data set [4] (setting [22]) it was at most 0.06 mg/L; in [5] (setting [23]) it was 32 mg/L (≈ 42.7 µM); in data set [6] (setting [24]), 0.12 mg/L (≈ 0.16 µM). Moreover, the MIC was at most 0.06 mg/L in [7] (setting [25]); 0.25 mg/L (≈ 0.334 µM) in data set [8] (setting [26]); 2 mg/L (≈ 2.67 µM) in data set [9] (setting [27]); 0.25 mg/L (≈ 0.334 µM) in data set [10] (setting [28]); 32 mg/L (≈ 42.7 µM) in data set [11] (setting [29]); 0.12 mg/L (≈ 0.16 µM) in data set [12] (setting [30]). Besides, the MIC in [13] is 0.5 mg/L (≈ 0.668 µM); in data set [14] it was at most 0.06 mg/L; in data set [15], 16 mg/L (≈ 21.4 µM). Besides, in data set [16], the “conversion of (Z)isomer to (E)isomer” value is listed as “An undetermined fraction of the (Z)isomer is converting”. Moreover, the “in vivo activity compared with in vitro activity” value in data set [17] (as regards susceptible organisms) is given as “more limited than its in vitro activity”. Also, the in vivo activity result in [17] (oral and parenteral routes) is “active in vivo versus a variety of Gram-positive microorganisms, e.g. Staphylococcus aureaus and Streptococcus pyogenes, and also certain Gram-negative microorganisms”. Besides, in data set [18] (MIC panel, compared with (III) and erythromycin A (I)), the “activity in vitro (in words)” value was “comparable with the activities of the known compounds 9-deoxo-9(E)-hydroxyiminoerythromycin A (III) and erythromycin A (I)”. For the same compound, in [18] (e.g. Staphylococcus aureas, Streptococcus pyogenes, certain Gram-negative cocci), the “in vitro activity against Gram-positive and certain Gram-negative microorganisms” value was “exhibits in vitro activity against a variety of Gram-positive microorganisms, e.g. Staphylococcus aureas and Streptococcus pyogenes, and against certain Gram-negative microorganisms”.
Consider `CC[C@H]1OC(=O)[C@H](C)[C@@H](O[C@H]2C[C@@](C)(OC)[C@@H](O)[C@H](C)O2)[C@H](C)[C@@H](O[C@@H]2O[C@H](C)C[C@H](N(C)C)[C@H]2O)[C@](C)(O)C[C@@H](C)/C(=N\O)[C@H](C)[C@@H](O)[C@]1(C)O` [(III), 9-Deoxo-9(E)-hydroxyiminoerythromycin A], for which the minimum inhibitory concentration (MIC) in [1] (setting [19]) was at most 0.06 mg/L; in data set [2] (setting [20]), 32 mg/L (≈ 42.7 µM); in data set [3] (setting [21]) it was 0.12 mg/L (≈ 0.16 µM); in [4] (setting [22]) it was at most 0.06 mg/L; in data set [5] (setting [23]), 16 mg/L (≈ 21.4 µM); in [6] (setting [24]) it was 0.12 mg/L (≈ 0.16 µM). Moreover, the MIC was at most 0.06 mg/L in data set [7] (setting [25]); 0.25 mg/L (≈ 0.334 µM) in [8] (setting [26]); 0.5 mg/L (≈ 0.668 µM) in data set [9] (setting [27]); 0.12 mg/L (≈ 0.16 µM) in [10] (setting [28]); 16 mg/L (≈ 21.4 µM) in data set [11] (setting [29]); 0.12 mg/L (≈ 0.16 µM) in data set [12] (setting [30]). The MIC in [13] is 0.25 mg/L (≈ 0.334 µM); in data set [14] it was 1 mg/L (≈ 1.34 µM); in data set [15] it was 32 mg/L (≈ 42.7 µM).
